# Experimental data published in patent publication US20140194498A1, “POLYISOPRENYLATED TETRACYCLIC XANTHONE WITH ANTICANCER ACTIVITY” (Hong Kong Baptist University, priority 2013, published 2014).
# “Also recorded” adds a separate entry of the source. Like-named read-outs stand apart in the source and are kept apart here.
# Key:
# [1] = test system: human esophageal carcinoma (ECA109) cells; assay: Wound healing assay; assay type: cell-based
# Procedure: Wound healing assay. A wound healing assay was performed by using a modified procedure described previously in Jones, J. I.; Gockerman, A.; Busby, W. H., Jr.; Wright, G.; Clemmons, D. R., Insulin-like growth factor binding protein 1 stimulates cell migration and binds to the alpha 5 beta 1 integrin by means of its Arg-Gly-Asp sequence. Proc Natl Acad Sci USA 1993, 90 (22), 10553-7. Briefly, cells were plated in 24 wells plate at 70% confluence in conditioned medium. 24 hours after seeding the monolayers were wounded by scoring with a sterile plastic 20 μL micropipette tip, then rinsed several times with media to remove cell debris and then incubated in completed medium in the absence or presence of tested compounds (10 and 20 μg/mL) for various periods of time up to 36 hours. Cell migration into the wound surface was monitored by Olympus IX71 microscopy and digitally photographed.
# [2] = test system: MCF-7 (human breast adenocarcinoma); assay type: cell-based
# Source text: (§1) Cytotoxicity Assay. […] Paclitaxel was used as positive control. […] Journal of Natural Products 2012.
# [3] = test system: MDA-MB-231 (human breast adenocarcinoma); assay type: cell-based
# Source text: as §1
# [4] = test system: SMMC-7721 (human hepatocellular carcinoma); assay: cells
# Procedure: (§2) To determine the cytotoxicity of garciesculentone B, its IC50 values on HepG2, SMMC-7721, MCF-7, and MDA-MB-231 cell lines are measured. […] In addition, further study is taken to test whether garciesculentone B can exert effects on cell motility. A wound healing assay using ECA109 cells is performed in this regard.
# (§3) Cytotoxicity Assay. Cytotoxic activitiy of garciesculentone B were evaluated by MTT assay using SMMC-7721 (human hepatocellular carcinoma), HepG2 (human hepatocellular carcinoma), MCF-7 (human breast adenocarcinoma), and MDA-MB-231 (human breast adenocarcinoma). Paclitaxel was used as positive control. The detailed methodology for cytotoxicity assay has already been described in Xia, Z.-X.; Zhang, D.-D.; Liang, S.; Lao, Y.-Z.; Zhang, H.; Tan, H.-S.; Chen, S.-L.; Wang, X.-H.; Xu, H.-X., Bioassay-Guided Isolation of Prenylated Xanthones and Polycyclic Acylphloroglucinols from the Leaves of Garcinia nujiangensis. Journal of Natural Products 2012.
# [5] = test system: HepG2 (human hepatocellular carcinoma)
# Procedure: as §2, §3
compound,measurement,setting,value
garciesculentone B,Cell migration into the wound area (antimigration effect),[1]; 10 and 20 μg/mL,significant delay in cells moving into the wound area; also recorded: shows antimigration effect on ECA109 cells
same,Wound closure,"[1]; up to 36 hours, control wound edges indistinguishable by 36 hours",do not migrate into and completely close the wound
same,IC50,[2],23.7 µM
same,IC50,[3],33.9 µM
same,IC50,[4],11.8 µM
same,IC50,[5],31.4 µM
"CC(=O)O[C@H]1C(=O)[C@@]2(C)[C@H]([C@H](OC(=O)c3ccccc3)[C@]3(O)C[C@H](OC(=O)[C@H](O)[C@@H](NC(=O)c4ccccc4)c4ccccc4)C(C)=C1C3(C)C)[C@]1(OC(C)=O)CO[C@@H]1C[C@@H]2O [Palcitaxel, Paclitaxel, reference compound]",IC50,"[4]; Homo sapiens, SMMC-7721, read-out: Cytotoxicity IC50, SMMC-7721",0.0091 µM
